ChEMBL document CHEMBL1201862, “PubChem BioAssay data set” (2004)
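In this assay, cells in 96-well plates receive the compound at five concentrations for 48 hours. Endpoints are linearly interpolated between the surrounding concentrations. Here, GI50 denotes the concentration required for 50% inhibition of growth.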 The source made the active and inactive calls. No stated cut-off is given here; in the data, active = GI50 up to about 1.1 µM and inactive = higher.

Key:
Experiment in all cases: NCI tumour cell line growth inhibition, 48 h
LXFL 529 = tested on: LXFL 529
RPMI-8226 = tested on: RPMI-8226
M19-MEL = tested on: M19-MEL
SK-MEL-28 = tested on: SK-MEL-28
MOLT-4 = tested on: MOLT-4
IGROV-1 = tested on: IGROV-1
NCI-H23 = tested on: NCI-H23
XF498 = tested on: XF498
EKVX = tested on: EKVX
KM12 = tested on: KM12
HCT-15 = tested on: HCT-15
HOP-62 = tested on: HOP-62
U-251 = tested on: U-251
HOP-18 = tested on: HOP-18
OVCAR-3 = tested on: OVCAR-3
NCI-H460 = tested on: NCI-H460
HT-29 = tested on: HT-29
HOP-92 = tested on: HOP-92
SF-539 = tested on: SF-539
HL-60 = tested on: HL-60
OVCAR-5 = tested on: OVCAR-5
UACC-257 = tested on: UACC-257
K562 = tested on: K562
SNB-78 = tested on: SNB-78
SK-MEL-5 = tested on: SK-MEL-5
SK-OV-3 = tested on: SK-OV-3
786-0 = tested on: 786-0
A549 = tested on: A549
CCRF-CEM = tested on: CCRF-CEM
A498 = tested on: A498
TK-10 = tested on: TK-10
HCT-116 = tested on: HCT-116
OVCAR-8 = tested on: OVCAR-8
SW-620 = tested on: SW-620
UO-31 = tested on: UO-31
DLD-1 = tested on: DLD-1
KM-20L2 = tested on: KM-20L2
SK-MEL-2 = tested on: SK-MEL-2
Malme-3M = tested on: Malme-3M
NCI-H522 = tested on: NCI-H522
SF-268 = tested on: SF-268
DMS-273 = tested on: DMS-273
DMS-114 = tested on: DMS-114
SF-295 = tested on: SF-295
M14 = tested on: M14
UACC-62 = tested on: UACC-62
LOX IMVI = tested on: LOX IMVI
SR = tested on: SR
SNB-19 = tested on: SNB-19
ACHN = tested on: ACHN
SNB-75 = tested on: SNB-75
COLO 205 = tested on: COLO 205
RXF 393 = tested on: RXF 393
OVCAR-4 = tested on: OVCAR-4
NCI-H226 = tested on: NCI-H226
CAKI-1 = tested on: CAKI-1
HCC 2998 = tested on: HCC 2998
SN12C = tested on: SN12C

With `CC(C)(Oc1ccc(C(=O)c2ccc(Cl)cc2)cc1Cl)C(=O)N1CCN(c2ccccc2)CC1` the GI50 (LXFL 529) was > 100 µM (inactive), the GI50 (RPMI-8226) was > 100 µM (inactive) and the GI50 (M19-MEL) was > 100 µM (inactive). The GI50 (SK-MEL-28) was > 100 µM (inactive), the GI50 (MOLT-4) was > 100 µM (inactive) and the GI50 (IGROV-1) was > 100 µM (inactive). For the same compound, the GI50 (NCI-H23) was 37.2 µM (inactive), the GI50 (XF498) was 52.1 µM (inactive) and the GI50 (EKVX) was > 100 µM (inactive). For the same compound, the GI50 (KM12) was > 100 µM (inactive), the GI50 (HCT-15) was greater than 100 µM and the GI50 (HOP-62) was > 100 µM (inactive). The GI50 (U-251) was > 100 µM (inactive), the GI50 (HOP-18) was > 100 µM (inactive) and the GI50 (OVCAR-3) was > 100 µM (inactive). The GI50 (NCI-H460) was > 100 µM (inactive), the GI50 (HT-29) was > 100 µM (inactive) and the GI50 (HOP-92) was > 100 µM (inactive). For the same compound, the GI50 (SF-539) was > 100 µM (inactive), the GI50 (HL-60) was 60.8 µM (inactive) and the GI50 (OVCAR-5) was > 100 µM (inactive). For the same compound, the GI50 (UACC-257) was 43.7 µM (inactive), the GI50 (K562) was 34.4 µM (inactive) and the GI50 (SNB-78) was > 100 µM (inactive). For the same compound, the GI50 (SK-MEL-5) was 72.8 µM (inactive), the GI50 (SK-OV-3) was > 100 µM (inactive) and the GI50 (786-0) was > 100 µM (inactive). The GI50 (A549) was 58.5 µM (inactive), the GI50 (CCRF-CEM) was > 100 µM (inactive) and the GI50 (A498) was > 100 µM (inactive). The GI50 (TK-10) was > 100 µM (inactive), the GI50 (HCT-116) was 82.2 µM (inactive) and the GI50 (OVCAR-8) was > 100 µM (inactive). For the same compound, the GI50 (SW-620) was > 100 µM (inactive), the GI50 (UO-31) was 46.9 µM (inactive) and the GI50 (DLD-1) was > 100 µM (inactive). For the same compound, the GI50 (KM-20L2) was > 100 µM (inactive), the GI50 (SK-MEL-2) was > 100 µM (inactive) and the GI50 (Malme-3M) was > 100 µM (inactive). The GI50 (NCI-H522) was 59 µM (inactive), the GI50 (SF-268) was > 100 µM (inactive) and the GI50 (DMS-273) was 55.7 µM (inactive). For the same compound, the GI50 (DMS-114) was 45.7 µM (inactive), the GI50 (SF-295) was > 100 µM (inactive) and the GI50 (M14) was > 100 µM (inactive). The GI50 (UACC-62) was > 100 µM (inactive), the GI50 (LOX IMVI) was > 100 µM (inactive) and the GI50 (SR) was 66.1 µM (inactive). The GI50 (SNB-19) was > 100 µM (inactive).
With `CN1C(=O)CCC1c1ccc2c(c1)oc(=O)n2C` (centres undefined) the GI50 (LXFL 529) was > 100 µM (inactive), the GI50 (RPMI-8226) was > 100 µM (inactive) and the GI50 (M19-MEL) was > 100 µM (inactive). The GI50 (SK-MEL-28) was > 100 µM (inactive), the GI50 (MOLT-4) was > 100 µM (inactive) and the GI50 (ACHN) was > 100 µM (inactive). The GI50 (IGROV-1) was > 100 µM (inactive), the GI50 (NCI-H23) was > 100 µM (inactive) and the GI50 (XF498) was > 100 µM (inactive). For the same compound, the GI50 (EKVX) was > 100 µM (inactive), the GI50 (SNB-75) was > 100 µM (inactive) and the GI50 (KM12) was > 100 µM (inactive). The GI50 (HCT-15) was greater than 100 µM, the GI50 (HOP-62) was > 100 µM (inactive) and the GI50 (COLO 205) was > 100 µM (inactive). The GI50 (U-251) was > 100 µM (inactive), the GI50 (HOP-18) was > 100 µM (inactive) and the GI50 (NCI-H460) was > 100 µM (inactive). For the same compound, the GI50 (HT-29) was > 100 µM (inactive), the GI50 (SF-539) was > 100 µM (inactive) and the GI50 (HL-60) was > 100 µM (inactive). The GI50 (OVCAR-5) was > 100 µM (inactive), the GI50 (UACC-257) was > 100 µM (inactive) and the GI50 (RXF 393) was > 100 µM (inactive). For the same compound, the GI50 (K562) was > 100 µM (inactive), the GI50 (OVCAR-4) was > 100 µM (inactive) and the GI50 (SNB-78) was > 100 µM (inactive). For the same compound, the GI50 (SK-OV-3) was > 100 µM (inactive), the GI50 (786-0) was > 100 µM (inactive) and the GI50 (A549) was > 100 µM (inactive). The GI50 (CCRF-CEM) was > 100 µM (inactive), the GI50 (NCI-H226) was > 100 µM (inactive) and the GI50 (TK-10) was > 100 µM (inactive). For the same compound, the GI50 (HCT-116) was > 100 µM (inactive), the GI50 (OVCAR-8) was > 100 µM (inactive) and the GI50 (CAKI-1) was > 100 µM (inactive). For the same compound, the GI50 (HCC 2998) was > 100 µM (inactive), the GI50 (SW-620) was > 100 µM (inactive) and the GI50 (UO-31) was > 100 µM (inactive). The GI50 (DLD-1) was > 100 µM (inactive), the GI50 (KM-20L2) was > 100 µM (inactive) and the GI50 (SK-MEL-2) was > 100 µM (inactive). The GI50 (Malme-3M) was > 100 µM (inactive), the GI50 (NCI-H522) was > 100 µM (inactive) and the GI50 (SF-268) was > 100 µM (inactive). The GI50 (DMS-273) was > 100 µM (inactive), the GI50 (DMS-114) was > 100 µM (inactive) and the GI50 (SF-295) was > 100 µM (inactive). For the same compound, the GI50 (M14) was > 100 µM (inactive), the GI50 (UACC-62) was > 100 µM (inactive) and the GI50 (SN12C) was > 100 µM (inactive). The GI50 (LOX IMVI) was > 100 µM (inactive) and the GI50 (SNB-19) was > 100 µM (inactive).
With `C=C[C@H]1C=Cc2c(OC)cccc2[C@@H]1COP1(=S)NC(C)C(c2ccccc2)O1` (some centres undefined) the GI50 (LXFL 529) was 48.5 µM (inactive), the GI50 (RPMI-8226) was 27 µM (inactive) and the GI50 (M19-MEL) was 75 µM (inactive). The GI50 (SK-MEL-28) was > 100 µM (inactive), the GI50 (MOLT-4) was 33.9 µM (inactive) and the GI50 (IGROV-1) was > 100 µM (inactive). For the same compound, the GI50 (NCI-H23) was 50.1 µM (inactive), the GI50 (XF498) was > 100 µM (inactive) and the GI50 (EKVX) was > 100 µM (inactive). For the same compound, the GI50 (SNB-75) was > 100 µM (inactive), the GI50 (KM12) was > 100 µM (inactive) and the GI50 (HOP-62) was > 100 µM (inactive). The GI50 (COLO 205) was 97.3 µM (inactive), the GI50 (U-251) was 86.3 µM (inactive) and the GI50 (HOP-18) was > 100 µM (inactive). The GI50 (OVCAR-3) was > 100 µM (inactive), the GI50 (NCI-H460) was > 100 µM (inactive) and the GI50 (HT-29) was 79.6 µM (inactive). The GI50 (SF-539) was > 100 µM (inactive), the GI50 (HL-60) was 18.9 µM (inactive) and the GI50 (RXF 393) was 51.1 µM (inactive). The GI50 (K562) was 37.1 µM (inactive), the GI50 (OVCAR-4) was > 100 µM (inactive) and the GI50 (SNB-78) was > 100 µM (inactive). The GI50 (SK-MEL-5) was 44.2 µM (inactive), the GI50 (SK-OV-3) was > 100 µM (inactive) and the GI50 (786-0) was > 100 µM (inactive). For the same compound, the GI50 (A549) was 83.2 µM (inactive), the GI50 (CCRF-CEM) was 42 µM (inactive) and the GI50 (NCI-H226) was 67.5 µM (inactive). For the same compound, the GI50 (TK-10) was > 100 µM (inactive), the GI50 (HCT-116) was 52.8 µM (inactive) and the GI50 (OVCAR-8) was 81.5 µM (inactive). The GI50 (HCC 2998) was 92 µM (inactive), the GI50 (SW-620) was > 100 µM (inactive) and the GI50 (DLD-1) was > 100 µM (inactive). For the same compound, the GI50 (KM-20L2) was > 100 µM (inactive), the GI50 (NCI-H522) was 29.4 µM (inactive) and the GI50 (SF-268) was 62.1 µM (inactive). For the same compound, the GI50 (DMS-273) was 57.9 µM (inactive), the GI50 (DMS-114) was 32.9 µM (inactive) and the GI50 (SF-295) was > 100 µM (inactive). The GI50 (M14) was > 100 µM (inactive), the GI50 (UACC-62) was 84.5 µM (inactive) and the GI50 (SN12C) was > 100 µM (inactive). For the same compound, the GI50 (LOX IMVI) was 17.2 µM (inactive) and the GI50 (SNB-19) was > 100 µM (inactive).
